Measured values published in ChEMBL document CHEMBL1121376, “Antihypertensive (2-aminoethyl)thiourea derivatives. 2” (1980).
Active and inactive are the calls of the source. The calls are words filed in the database; no cut-off is given here.

Columns and labels:
Canis familiaris [1] = assay: Evaluation of antihypertensive activity renally hypertensive dog at dose 10,30,100mg/kg(po); Inactive; type: functional, organism-based; conditions: Canis lupus familiaris
Canis familiaris [2] = assay: Evaluation of antihypertensive activity renally hypertensive dog at dose 10 mg/kg; type: functional, Canis lupus familiaris
Rattus norvegicus [3] = assay: Evaluation of antihypertensive activity in DOCA/salt hypertensive rats at peroral dose of 10,30,100 mg /kg; value ranges from 12-20%; type: functional
Rattus norvegicus [4] = assay: Evaluation of antihypertensive activity in spontaneously hypertensive rats at peroral dose of 10, 30,100 mg /kg; type: functional
Rattus norvegicus [5] = assay: Evaluation of antihypertensive activity in DOCA/salt hypertensive rats at peroral dose of 10 mg/kg; no effect on HR; Inactive; type: functional, organism-based; design: dose 10 mg/kg
Rattus norvegicus [6] = assay: Evaluation of decrease in heart rate (antihypertensive activity) in spontaneously hypertensive rats after 3-6h 0f peroral dose of 100 mg /kg; type: functional

## NCC/N=C(\S)Nc1c(Cl)cccc1Cl
Canis familiaris [1]
  Reduction in arterial blood pressure: inactive
Canis familiaris [2]
  Reduction in arterial blood pressure: 7%
Rattus norvegicus [3]
  Decrease in blood pressure: 12%
Rattus norvegicus [4]
  Reduction in blood pressure: 12.7%
Rattus norvegicus [5]
  Reduction in arterial blood pressure: inactive
Rattus norvegicus [6]
  Reduction in heart rate: 12.7%
